# Experimental data published in ChEMBL document CHEMBL5625233, “Exploring positions 6 and 7 of a quinazoline-based scaffold leads to changes in selectivity and potency towards RIPK2/3 kinases” (Eur J Med Chem, 2023).
# pIC50: −log10 of the molar value. Calls of active or inactive are those of the source. The calls are words filed in the database; no cut-off is given here.
# Legend:
# [1] = biological target: T1, Receptor-interacting serine/threonine-protein kinase 2 (Homo sapiens, UniProt O43353); test: Inhibition of RIPK2-mediated NF-kappaB signalling in C14-TriLAN-Gly-treated human THP-1 cells upto 10 uM preincubated for 30 mins followed by C14-TriLAN-Gly addition measured after 24 hrs by luminescence based assay; assay type: cell-based
# [2] = biological target: T2, Receptor-interacting serine/threonine-protein kinase 4 (Homo sapiens, UniProt P57078); test: Inhibition of N-terminal polyHis-tagged human RIPK4 (1 to 321 residues) expressed in Sf9 cells using MBP as substrate preincubated for 15 mins followed by ATP addition measured after 90 mins by ADP-Glo assay
# T2 sequence (P57078 whole entry): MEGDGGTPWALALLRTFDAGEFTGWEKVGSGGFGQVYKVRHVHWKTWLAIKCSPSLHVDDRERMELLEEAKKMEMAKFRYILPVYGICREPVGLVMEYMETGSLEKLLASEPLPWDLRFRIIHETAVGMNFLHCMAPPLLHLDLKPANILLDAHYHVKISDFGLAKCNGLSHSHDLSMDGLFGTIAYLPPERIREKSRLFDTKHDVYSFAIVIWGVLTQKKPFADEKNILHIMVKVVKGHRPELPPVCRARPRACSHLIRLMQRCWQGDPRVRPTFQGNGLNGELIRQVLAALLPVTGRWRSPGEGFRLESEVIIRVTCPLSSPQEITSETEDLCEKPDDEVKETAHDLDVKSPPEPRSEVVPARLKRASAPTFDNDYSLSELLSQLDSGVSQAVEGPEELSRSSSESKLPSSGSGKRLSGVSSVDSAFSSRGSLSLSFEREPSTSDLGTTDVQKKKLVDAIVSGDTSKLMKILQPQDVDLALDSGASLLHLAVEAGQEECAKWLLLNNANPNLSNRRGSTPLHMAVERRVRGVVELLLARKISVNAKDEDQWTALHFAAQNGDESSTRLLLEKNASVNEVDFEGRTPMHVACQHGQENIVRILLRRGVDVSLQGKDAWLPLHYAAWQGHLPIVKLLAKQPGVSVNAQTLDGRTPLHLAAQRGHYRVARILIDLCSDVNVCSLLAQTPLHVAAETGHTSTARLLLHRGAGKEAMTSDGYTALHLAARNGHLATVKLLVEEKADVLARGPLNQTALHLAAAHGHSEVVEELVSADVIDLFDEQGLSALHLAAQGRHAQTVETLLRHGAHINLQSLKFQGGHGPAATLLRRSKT
# [3] = biological target: T3, Receptor-interacting serine/threonine-protein kinase 1 (Homo sapiens, UniProt Q13546); test: Inhibition of N-terminal polyHis-tagged human RIPK1 (1 to 321 residues) expressed in Sf9 cells using MBP as substrate preincubated for 15 mins followed by ATP addition measured after 90 mins by ADP-Glo assay
# T3 sequence (Q13546 whole entry): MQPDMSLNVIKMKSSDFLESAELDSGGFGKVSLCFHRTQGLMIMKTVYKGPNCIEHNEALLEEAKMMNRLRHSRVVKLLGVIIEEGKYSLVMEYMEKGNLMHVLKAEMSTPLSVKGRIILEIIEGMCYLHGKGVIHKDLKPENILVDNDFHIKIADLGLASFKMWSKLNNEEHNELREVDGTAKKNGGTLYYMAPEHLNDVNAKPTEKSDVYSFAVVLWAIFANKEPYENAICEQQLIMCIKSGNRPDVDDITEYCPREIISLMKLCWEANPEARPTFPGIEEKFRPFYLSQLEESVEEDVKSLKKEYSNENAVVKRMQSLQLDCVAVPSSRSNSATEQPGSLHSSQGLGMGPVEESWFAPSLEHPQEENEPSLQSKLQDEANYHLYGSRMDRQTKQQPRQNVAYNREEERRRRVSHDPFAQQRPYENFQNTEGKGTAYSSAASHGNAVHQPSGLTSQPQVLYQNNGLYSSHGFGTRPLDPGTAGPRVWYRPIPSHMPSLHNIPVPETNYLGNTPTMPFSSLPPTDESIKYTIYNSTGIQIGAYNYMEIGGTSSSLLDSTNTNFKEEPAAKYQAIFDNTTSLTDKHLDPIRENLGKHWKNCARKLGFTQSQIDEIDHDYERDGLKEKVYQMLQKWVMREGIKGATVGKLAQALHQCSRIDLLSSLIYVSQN
# [4] = biological target: T4, Receptor-interacting serine/threonine-protein kinase 3 (Homo sapiens, UniProt Q9Y572); test: Inhibition of N-terminal polyHis-tagged human RIPK3 (1 to 307 residues) expressed in Sf9 cells using MBP as substrate upto 10 uM preincubated for 15 mins followed by ATP addition measured after 90 mins by ADP-Glo assay; details: time 105.0 min
# Target sequence in this assay (Q9Y572 whole entry, looked up, the tested form may be a part): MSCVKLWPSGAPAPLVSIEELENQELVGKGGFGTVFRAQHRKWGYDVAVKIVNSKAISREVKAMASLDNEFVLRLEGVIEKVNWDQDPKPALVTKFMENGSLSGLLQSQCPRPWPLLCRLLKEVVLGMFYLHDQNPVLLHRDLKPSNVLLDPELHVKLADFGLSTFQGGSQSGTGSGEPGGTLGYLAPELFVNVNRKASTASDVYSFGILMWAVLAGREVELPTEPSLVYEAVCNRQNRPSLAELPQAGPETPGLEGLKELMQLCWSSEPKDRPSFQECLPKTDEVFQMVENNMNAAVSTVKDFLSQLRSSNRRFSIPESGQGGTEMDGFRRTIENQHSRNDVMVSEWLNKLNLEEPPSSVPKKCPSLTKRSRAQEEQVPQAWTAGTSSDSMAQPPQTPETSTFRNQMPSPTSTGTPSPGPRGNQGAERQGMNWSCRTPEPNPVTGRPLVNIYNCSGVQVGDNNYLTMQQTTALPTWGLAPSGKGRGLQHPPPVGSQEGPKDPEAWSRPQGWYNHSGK
# [5] = biological target: T1, Receptor-interacting serine/threonine-protein kinase 2; test: Inhibition of N-terminal polyHis-tagged human RIPK2 (8 to 310 residues) expressed in Sf9 cells using MBP as substrate preincubated for 15 mins followed by ATP addition measured after 90 mins by ADP-Glo assay
# [6] = biological target: T1, Receptor-interacting serine/threonine-protein kinase 2; test: Inhibition of RIPK2-mediated NF-kappaB signalling in MDP-treated human THP-1 cells upto 10 uM preincubated for 30 mins followed by MDP addition measured after 24 hrs by luminescence based assay; assay type: cell-based
# [7] = biological target: T1, Receptor-interacting serine/threonine-protein kinase 2; test: Inhibition of RIPK2-mediated NF-kappaB signalling in C14-TriLAN-Gly-treated human THP-1 cells preincubated for 30 mins followed by C14-TriLAN-Gly addition measured after 24 hrs by luminescence based assay; assay type: cell-based
# [8] = biological target: T1, Receptor-interacting serine/threonine-protein kinase 2; test: Inhibition of RIPK2-mediated NF-kappaB signalling in MDP-treated human THP-1 cells preincubated for 30 mins followed by MDP addition measured after 24 hrs by luminescence based assay; assay type: cell-based
# [9] = biological target: T4, Receptor-interacting serine/threonine-protein kinase 3; test: Inhibition of N-terminal polyHis-tagged human RIPK3 (1 to 307 residues) expressed in Sf9 cells using MBP as substrate preincubated for 15 mins followed by ATP addition measured after 90 mins by ADP-Glo assay
# Target sequence in this assay (Q9Y572 whole entry, the tested form may be a part): as the sequence (Q9Y572 whole entry, looked up, the tested form may be a part) above
# T1 sequence (O43353 whole entry, the tested form may be a part): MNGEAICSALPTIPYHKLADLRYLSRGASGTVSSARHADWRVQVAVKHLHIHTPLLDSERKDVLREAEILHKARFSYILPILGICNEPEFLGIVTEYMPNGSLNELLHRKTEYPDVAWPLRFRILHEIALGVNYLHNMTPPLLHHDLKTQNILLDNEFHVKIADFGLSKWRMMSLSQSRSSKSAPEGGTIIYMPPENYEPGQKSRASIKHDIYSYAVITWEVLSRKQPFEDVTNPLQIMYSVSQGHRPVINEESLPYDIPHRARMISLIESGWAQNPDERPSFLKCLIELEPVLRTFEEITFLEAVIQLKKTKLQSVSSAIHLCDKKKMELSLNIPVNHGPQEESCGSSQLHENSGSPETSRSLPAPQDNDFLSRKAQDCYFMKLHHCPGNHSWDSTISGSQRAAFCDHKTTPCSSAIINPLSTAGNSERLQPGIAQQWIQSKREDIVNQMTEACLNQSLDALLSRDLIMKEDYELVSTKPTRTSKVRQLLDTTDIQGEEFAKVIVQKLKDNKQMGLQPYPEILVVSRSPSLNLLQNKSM
Compound,IC50 [1],pIC50 [2],pIC50 [3],inhibition [4],pIC50 [5],IC50 [6],pIC50 [7],pIC50 [8],pIC50 [9]
Clc1cc2ncnc(Nc3ccc4scnc4c3)c2cc1-c1cccs1,Not Active,< 4.30,< 4.30,inactive,7.85,Not Active,–,–,–
Cn1ccnc1-c1ccc2ncnc(Nc3ccc4scnc4c3)c2c1,–,< 4.30,< 4.30,inactive,7.92,–,6.62,6.56,–
COc1cccc(-c2cc3c(Nc4ccc5scnc5c4)ncnc3cc2Cl)n1,Not Active,< 4.30,< 4.30,inactive,5.41,Not Active,–,–,–
Clc1cc2ncnc(Nc3ccc4scnc4c3)c2cc1-c1ccccc1,Not Active,< 4.30,< 4.30,inactive,–,Not Active,–,–,–
c1ccc(-c2ccc3ncnc(Nc4ccc5scnc5c4)c3c2)cc1,–,< 4.30,< 4.30,–,7.74,–,5.36,5.67,5.44
Cn1cccc1-c1ccc2ncnc(Nc3ccc4scnc4c3)c2c1,–,< 4.30,< 4.30,–,7.66,–,6.14,6.28,5.54
Cc1ncc(-c2ccc3ncnc(Nc4ccc5scnc5c4)c3c2)s1,–,< 4.30,< 4.30,–,8.40,–,6.87,6.97,5.22
Cc1csc(-c2cc3c(Nc4ccc5scnc5c4)ncnc3cc2Cl)n1,Not Active,< 4.30,< 4.30,inactive,–,Not Active,–,–,–
OCc1cccc(-c2cc3ncnc(Nc4ccc5scnc5c4)c3cc2-c2cccs2)c1,–,< 4.30,< 4.30,–,8.30,–,6.36,6.40,6.26
Cn1cc(-c2ccc3ncnc(Nc4ccc5scnc5c4)c3c2)cn1,–,< 4.30,< 4.30,–,8.40,–,7.33,7.42,5.82
Cn1nc(C(F)(F)F)cc1-c1cc2c(Nc3ccc4scnc4c3)ncnc2cc1Cl,–,< 4.30,< 4.30,–,6.49,–,5.34,5.47,5.59
CC(C)(C)S(=O)(=O)c1cc2c(Nc3ccc4scnc4c3)ncnc2cc1OCCOP(=O)(O)O,–,–,–,inactive,8.40,–,7.04,7.42,–
Cc1ncc(-c2ccc3ncnc(Nc4ccc5scnc5c4)c3c2)n1C,–,< 4.30,< 4.30,inactive,8.05,–,6.84,6.62,–
Cc1nc(-c2cc3c(Nc4ccc5scnc5c4)ncnc3cc2Cl)sc1C,Not Active,< 4.30,< 4.30,inactive,–,Not Active,–,–,–
Cn1nccc1-c1cc2c(Nc3ccc4scnc4c3)ncnc2cc1Cl,–,< 4.30,< 4.30,–,7.74,–,6.50,6.50,5.80
COc1cccc(-c2ccc3ncnc(Nc4ccc5scnc5c4)c3c2)n1,Not Active,< 4.30,< 4.30,inactive,7.31,Not Active,–,–,–
Cc1cscc1-c1cc2c(Nc3ccc4scnc4c3)ncnc2cc1Cl,Not Active,< 4.30,< 4.30,inactive,6.98,–,–,5.68,–
Cn1cnc(-c2cc3c(Nc4ccc5scnc5c4)ncnc3cc2Cl)c1,–,< 4.30,< 4.30,inactive,8.00,–,6.68,6.85,–
Cc1ccsc1-c1ccc2ncnc(Nc3ccc4scnc4c3)c2c1,–,< 4.30,< 4.30,–,8.22,–,6.36,6.44,6.41
c1nc(Nc2ccc3scnc3c2)c2cc(-c3cc[nH]n3)ccc2n1,–,< 4.30,< 4.30,–,8.22,–,6.94,7.17,5.68
Cc1cscc1-c1ccc2ncnc(Nc3ccc4scnc4c3)c2c1,–,< 4.30,< 4.30,–,7.54,–,5.35,5.81,5.72
Cc1csc(-c2ccc3ncnc(Nc4ccc5scnc5c4)c3c2)n1,–,< 4.30,< 4.30,–,8.30,Not Active,5.56,–,6.42
Cc1nc(-c2ccc3ncnc(Nc4ccc5scnc5c4)c3c2)sc1C,Not Active,< 4.30,< 4.30,inactive,7.85,Not Active,–,–,–
Cc1ncc(-c2cc3c(Nc4ccc5scnc5c4)ncnc3cc2Cl)n1C,–,< 4.30,< 4.30,inactive,8.00,–,6.72,7.02,–
Cn1cccc1-c1cc2c(Nc3ccc4scnc4c3)ncnc2cc1Cl,Not Active,< 4.30,< 4.30,inactive,8.10,Not Active,–,–,–
Cc1ncc(-c2cc3c(Nc4ccc5scnc5c4)ncnc3cc2Cl)s1,–,< 4.30,< 4.30,inactive,8.30,–,6.81,6.99,–
Cn1cnc(-c2ccc3ncnc(Nc4ccc5scnc5c4)c3c2)c1,–,< 4.30,< 4.30,inactive,7.96,–,6.68,7.02,–
Clc1cc2ncnc(Nc3ccc4scnc4c3)c2cc1-c1cc[nH]n1,–,< 4.30,< 4.30,inactive,8.00,Not Active,6.81,–,–
Cn1cc(-c2cc3c(Nc4ccc5scnc5c4)ncnc3cc2Cl)cn1,–,< 4.30,< 4.30,inactive,8.40,–,7.17,7.20,–
CC(C)S(=O)(=O)c1ccc2nccc(Nc3ccc4scnc4c3)c2c1,–,–,–,–,8.70,–,8.05,8.40,–
